Reference: the supplement of paper PMC11208160

experiment: recombinant UMI read abundance after kanamycin selection (control-corrected) (log10(CPM+1)); higher = more efficient recombination; extreme values may be limits of the assay; sequences stand for … in AGTGCAGAGAAAATCGGCCAGTTTTCTCTGCCTGCAGTCCGCATGCCGTGGGACCCCTTGGGTTCTAACCTGTTGCCTAGATTTATGCAGCGGACTGCCTTTCTCCCAAAGTGATAAACCGG…AGGTTGGTTTCACT; site = the 11-nt donor
Summary of the method: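 For the IS621 bridge recombinase, a pooled Escherichia coli screen tested donor and donor-binding-loop pairs. Cells received the pair library together with a target plasmid encoding a fixed target and T7-inducible recombinase, then went onto IPTG (0.07 mM) plus kanamycin or unselected plates in duplicate. After PCR across the donor–target junction and sequencing, recombinant UMI counts were normalized to CPM, averaged, and scaled by control-derived factors. Each value is given as log10(CPM+1).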
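Also: IS621 bridge recombinase in Escherichia coli cells against a fixed T5 target plasmid.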

Sequence | recombinant UMI read abundance (log10)
CCCTGTCCATGGACCGGTTTTCCCGGTAATCCGTATTTGCA (site CCCAGTCCTTG) | 0
CCCTGTCCATGGACCGGTTTTCCCGGTAATCCGTATTTGCA (site CCCCGTCCTTG) | 0.0428
CCCTGTCCATGGACCGGTTTTCCCGGTAATCCGTATTTGCA (site CCCGGTCCTTG) | 0
CCCTGTCCATGGACCGGTTTTCCCGGTAATCCGTATTTGCA (site CCCTGTCCTTG) | 0.00678
CCCTTAGCATGGACCGGTTTTCCCGGTAATCCGTATTTGTG (site CCATTAGCTCA) | 0.0224
CCCTTAGCATGGACCGGTTTTCCCGGTAATCCGTATTTGTG (site CCCTTAGCTCA) | 0.0472
CCCTTAGCATGGACCGGTTTTCCCGGTAATCCGTATTTGTG (site CCGTTAGCTCA) | 0.00331
CCCTTAGCATGGACCGGTTTTCCCGGTAATCCGTATTTGTG (site CCTTTAGCTCA) | 0.0232
CCCTTCTCATGGACCGGTTTTCCCGGTAATCCGTATTTGGG (site ACCTTCTCTCC) | 0.00611
CCCTTCTCATGGACCGGTTTTCCCGGTAATCCGTATTTGGG (site CACTTCTCTCC) | 0.00776
CCCTTCTCATGGACCGGTTTTCCCGGTAATCCGTATTTGGG (site CCATTCTCTCC) | 0
CCCTTCTCATGGACCGGTTTTCCCGGTAATCCGTATTTGGG (site CCCATCTCTCC) | 0.0128
CCCTTCTCATGGACCGGTTTTCCCGGTAATCCGTATTTGGG (site CCCCTCTCTCC) | 0.0125
CCCTTCTCATGGACCGGTTTTCCCGGTAATCCGTATTTGGG (site CCCGTCTCTCC) | 0.00385
CCCTTCTCATGGACCGGTTTTCCCGGTAATCCGTATTTGGG (site CCCTACTCTCC) | 0.0199
CCCTTCTCATGGACCGGTTTTCCCGGTAATCCGTATTTGGG (site CCCTCCTCTCC) | 0.0129
CCCTTCTCATGGACCGGTTTTCCCGGTAATCCGTATTTGGG (site CCCTGCTCTCC) | 0.0154
CCCTTCTCATGGACCGGTTTTCCCGGTAATCCGTATTTGGG (site CCCTTATCTCC) | 0
CCCTTCTCATGGACCGGTTTTCCCGGTAATCCGTATTTGGG (site CCCTTCACTCC) | 0.0149
CCCTTCTCATGGACCGGTTTTCCCGGTAATCCGTATTTGGG (site CCCTTCCCTCC) | 0.00574
CCCTTCTCATGGACCGGTTTTCCCGGTAATCCGTATTTGGG (site CCCTTCGCTCC) | 0.0128
CCCTTCTCATGGACCGGTTTTCCCGGTAATCCGTATTTGGG (site CCCTTCTCTAC) | 0
CCCTTCTCATGGACCGGTTTTCCCGGTAATCCGTATTTGGG (site CCCTTCTCTCA) | 0.0118

Sequence | recombinant UMI read abundance (log10)
CCCTTCTCATGGACCGGTTTTCCCGGTAATCCGTATTTGGG (site CCCTTCTCTCC) | 0.0281
CCCTTCTCATGGACCGGTTTTCCCGGTAATCCGTATTTGGG (site CCCTTCTCTCG) | 0.0129
CCCTTCTCATGGACCGGTTTTCCCGGTAATCCGTATTTGGG (site CCCTTCTCTCT) | 0.0297
CCCTTCTCATGGACCGGTTTTCCCGGTAATCCGTATTTGGG (site CCCTTCTCTGC) | 0
CCCTTCTCATGGACCGGTTTTCCCGGTAATCCGTATTTGGG (site CCCTTCTCTTC) | 0.00791
CCCTTCTCATGGACCGGTTTTCCCGGTAATCCGTATTTGGG (site CCCTTGTCTCC) | 0.0418
CCCTTCTCATGGACCGGTTTTCCCGGTAATCCGTATTTGGG (site CCCTTTTCTCC) | 0.00608
CCCTTCTCATGGACCGGTTTTCCCGGTAATCCGTATTTGGG (site CCGTTCTCTCC) | 0
CCCTTCTCATGGACCGGTTTTCCCGGTAATCCGTATTTGGG (site CCTTTCTCTCC) | 0.00766
CCCTTCTCATGGACCGGTTTTCCCGGTAATCCGTATTTGGG (site CGCTTCTCTCC) | 0
CCCTTCTCATGGACCGGTTTTCCCGGTAATCCGTATTTGGG (site CTCTTCTCTCC) | 0.0147
CCCTTCTCATGGACCGGTTTTCCCGGTAATCCGTATTTGGG (site GCCTTCTCTCC) | 0.00558
CCCTTCTCATGGACCGGTTTTCCCGGTAATCCGTATTTGGG (site TCCTTCTCTCC) | 0.0111
CCCTTCTCATGGACCGGTTTTCCCGGTAATCCGTATTTGTG (site CCCTTCTCTCA) | 0.583
CCCTTCTCATGGACCGGTTTTCCCGGTAATCCGTATTTGTG (site CCCTTCTCTCC) | 0.0231
CCCTTCTCATGGACCGGTTTTCCCGGTAATCCGTATTTGTG (site CCCTTCTCTCG) | 0.995
CCCTTCTCATGGACCGGTTTTCCCGGTAATCCGTATTTGTG (site CCCTTCTCTCT) | 0.00643
CCCTTTTCATGGACCGGTTTTCCCGGTAATCCGTATTTGGG (site CCCTTATCTCC) | 0.00602
CCCTTTTCATGGACCGGTTTTCCCGGTAATCCGTATTTGGG (site CCCTTCTCTCC) | 0.0124
CCCTTTTCATGGACCGGTTTTCCCGGTAATCCGTATTTGGG (site CCCTTGTCTCC) | 0.0108
CCCTTTTCATGGACCGGTTTTCCCGGTAATCCGTATTTGGG (site CCCTTTTCTCC) | 0
CCGAAGCCATGGACCGGTTTTCCCGGTAATCCGTATTTGGG (site ACGAAGCCTCC) | 0.0168
CCGAAGCCATGGACCGGTTTTCCCGGTAATCCGTATTTGGG (site CCGAAGCCTCC) | 0.0077

Sequence | recombinant UMI read abundance (log10)
CCGAAGCCATGGACCGGTTTTCCCGGTAATCCGTATTTGGG (site GCGAAGCCTCC) | 0.0226
CCGAAGCCATGGACCGGTTTTCCCGGTAATCCGTATTTGGG (site TCGAAGCCTCC) | 0.0139
CCGAGTTCATGGACCGGTTTTCCCGGTAATCCGTATTTGTT (site CCGAGTTCTAA) | 0.501
CCGCCCGCATGGACCGGTTTTCCCGGTAATCCGTATTTGTA (site CCGCCCGCTTA) | 1.02
CCGGAACCATGGACCGGTTTTCCCGGTAATCCGTATTTGAT (site CAGGAACCTAT) | 0
CCGGAACCATGGACCGGTTTTCCCGGTAATCCGTATTTGAT (site CCGGAACCTAT) | 0
CCGGAACCATGGACCGGTTTTCCCGGTAATCCGTATTTGAT (site CGGGAACCTAT) | 0
CCGGAACCATGGACCGGTTTTCCCGGTAATCCGTATTTGAT (site CTGGAACCTAT) | 0.00208
CCGGGACCATGGACCGGTTTTCCCGGTAATCCGTATTTGAG (site CCGGGACCTCT) | 0
CCGGGCCCATGGACCGGTTTTCCCGGTAATCCGTATTTGTA (site CCGGGCCCTTA) | 0.0269
CCGTAATCATGGACCGGTTTTCCCGGTAATCCGTATTTGCG (site CCGTAATCTCG) | 1.7
CCGTATACATGGACCGGTTTTCCCGGTAATCCGTATTTGAT (site CCGTATACTAT) | 0.449
CCGTCATCATGGACCGGTTTTCCCGGTAATCCGTATTTGAT (site CCGTCATCTAT) | 0.00671
CCGTCTGCATGGACCGGTTTTCCCGGTAATCCGTATTTGCT (site CCGTCTGCTAG) | 0.241
CCGTGTACATGGACCGGTTTTCCCGGTAATCCGTATTTGCT (site CCGTATACTAG) | 0.0403
CCGTGTACATGGACCGGTTTTCCCGGTAATCCGTATTTGCT (site CCGTCTACTAG) | 0.00869
CCGTGTACATGGACCGGTTTTCCCGGTAATCCGTATTTGCT (site CCGTGTACTAG) | 0.439
CCGTGTACATGGACCGGTTTTCCCGGTAATCCGTATTTGCT (site CCGTTTACTAG) | 0
CCGTGTGCATGGACCGGTTTTCCCGGTAATCCGTATTTGAC (site CCGTGTGCTGT) | 1
CCGTTAACATGGACCGGTTTTCCCGGTAATCCGTATTTGTG (site CCGTTAACTCA) | 0.0455
CCGTTAACATGGACCGGTTTTCCCGGTAATCCGTATTTGTG (site CCGTTACCTCA) | 0.0226
CCGTTAACATGGACCGGTTTTCCCGGTAATCCGTATTTGTG (site CCGTTAGCTCA) | 0.182
